The record followed here is patent US20160355483A1, “COMPOUND BINDING TO PPARG BUT NOT ACTING AS PROMOTER AND PHARMACEUTICAL COMPOSITION FOR TREATING PPARG-RELATED DISEASES CONTAINING SAME AS ACTIVE INGREDIENT” (Hyundai Pharm Co., Ltd., priority 2014, published 2016).

The target in this test is T1, PPARG (peroxisome proliferator activated receptor-gamma), GST-PPARG-LBD (Homo sapiens, UniProt P37231).
T1 construct: 15 μL of 5 nM GST-PPARG-LBD and 5 nM Tb-GST-antibody were added; purchased Invitrogen PV4894
T1 sequence (P37231 238-503 limits assumed): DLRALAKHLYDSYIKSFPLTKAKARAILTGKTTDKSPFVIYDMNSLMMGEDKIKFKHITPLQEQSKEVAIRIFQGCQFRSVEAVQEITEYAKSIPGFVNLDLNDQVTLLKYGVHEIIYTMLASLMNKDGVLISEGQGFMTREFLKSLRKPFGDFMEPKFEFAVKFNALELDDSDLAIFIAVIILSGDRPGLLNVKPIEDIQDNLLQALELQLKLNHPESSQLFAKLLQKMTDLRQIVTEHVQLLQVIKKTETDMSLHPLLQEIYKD
Put plainly: LanthaScreen TR-FRET PPARG Competitive Binding Assay. The arrangement: key: “+” indicates the degree of the binding activity, and as the number of “+” increases, the binding activity is stronger; ++: “+” indicates the degree of the binding activity, and as the number of “+” increases, the binding activity is stronger; +++: “+” indicates the degree of the binding activity, and as the number of “+” increases, the binding activity is stronger; ++++: “+” indicates the degree of the binding activity, and as the number of “+” increases, the binding activity is stronger. As to conditions: degree of binding activity. The procedure: The following experiment was performed to evaluate the PPARG (peroxisome proliferator activated receptor-gamma) binding capacity and transcriptional activity of the compounds prepared in the examples of the invention. For the experiment, LanthaScreen™ TR-FRET PPARG Competitive Binding Assay Kit (PV4894, Invitrogen) was used according to the manufacturer's instruction. […] The mixture was loaded in a 384-well plate (Greiner, 784075) by 20 μL per well, followed by reaction at room temperature for 1 hour. Upon completion of the reaction, fluorescence value was measured by using Flexstation 3 (Molecular Devices) with time-resolved fluorescence (RFU) mode (excitation 1: 340 nm, emission 1: 518 nm, excitation 2: 340 nm, emission 2: 488 nm, integration delay 50 μs, integration 400 μs). The results were calculated by using 518 nm RFUs/488 nm RFUs ratio. The activity of the compounds of the invention was compared with that of the vehicle, which was calculated by ratio according to the formula [100%−compound of the example ratio/vehicle ratio]. At this time, the binding activity ratio to rosiglitazone was compared.
In general terms: In TR-FRET formats the signal depends on donor and acceptor labels being close together.

`C[C@H](NC(=O)c1ccc2c(c1)CCCN2Cc1cccc(-c2ccccc2C(=O)O)c1)c1ccc([N+](=O)[O-])cc1` [Example 119, (S)-3′-((6-((1-(4-nitrophenyl)ethyl)carbamoyl)-3,4-dihydroquinoline-1(2H)-yl)methyl)-[1,1′-biphenyl]-2-carboxylic acid]: the “Binding assay (1 μLM)” value is “++”.
Regarding `C[C@H](NC(=O)c1ccc2c(c1)CCCN2Cc1ccc(-c2ccccc2C(=O)O)cc1)c1ccc(Br)cc1` [Example 7, (S)-4′-((6-((1-(4-bromophenyl)ethyl)carbamoyl)-3,4-dihydroquinoline-1(2H)-yl)methyl)-[1,1′-biphenyl]-2-caboxylic acid], the “Binding assay (1 μLM)” value is listed as “++++”.
For the molecule `C[C@H](NC(=O)c1ccc2c(c1)CCCN2Cc1ccc(-c2ccccc2C(=O)O)cc1)c1cccc(Cl)c1` [Example 9, (S)-4′-((6-((1-(3-chlorophenyl)ethyl)carbamoyl)-3,4-dihydroquinoline-1(2H)-yl)methyl)-[1,1′-biphenyl]-2-caboxylic acid], the “Binding assay (1 μLM)” value is listed as “++++”.
The entry for `C[C@H](NC(=O)c1ccc2c(c1)CCCN2Cc1ccc(-c2ccccc2C(N)=O)cc1)c1ccccc1` [Example 2, (S)-1-((2′-carbamoyl-[1,1′-biphenyl]-4-yl)methyl)-N-(1-phenylethyl)-1,2,3,4-tetrahydroquinoline-6-carboxamide] is “+++”; for `C[C@H](NC(=O)c1ccc2c(c1)CCCN2Cc1cccc(-c2ccccc2C(N)=O)c1F)c1ccccc1` [Example 127, (S)-1-((2′-carbamoyl-2-fluoro-[1,1′-biphenyl]-3-yl)methyl)-N-(1-phenylethyl)-1,2,3,4-tetrahydroquinoline-6-carboxamide] it is “+++”.
The entry for `C[C@H](NC(=O)c1ccc2c(c1)CCCN2Cc1ccc(-c2ccccc2C(=O)O)cc1)c1ccc([N+](=O)[O-])cc1` [Example 3, (S)-4′-((6-((1-(4-nitrophenyl)ethyl)carbamoyl)-3,4-dihydroquinoline-1(2H)-yl)methyl)-[1,1′-biphenyl]-2-caboxylic acid] is “+”.
Consider `C[C@H](NC(=O)c1ccc2c(c1)CCCN2Cc1cc(-c2ccccc2C(=O)O)ccc1F)c1ccc([N+](=O)[O-])cc1` [Example 136, (S)-4′-fluoro-3′-((6-((1-(4-nitrophenyl)ethyl)carbamoyl)-3,4-dihydroquinoline-1(2H)-yl)methyl)-[1,1′-biphenyl]-2-caboxylic acid], for which the “Binding assay (1 μLM)” value is reported as “+++”.
`C[C@H](NC(=O)c1ccc2c(c1)CCCN2Cc1ccc(-c2ccccc2C(=O)O)cc1F)c1ccc2ccccc2c1` [Example 108, (S)-3′-fluoro-4′-((6-((1-(naphthalene-2-yl)ethyl)carbamoyl)-3,4-dihydroquinoline-1(28)-yl)methyl)-[1,1′-biphenyl]-2-carboxylic acid]: the “Binding assay (1 μLM)” value is “++++”.
Regarding `Cc1ccc([C@H](C)NC(=O)c2ccc3c(c2)CCCN3Cc2cccc(-c3ccccc3C(=O)O)c2)cc1F` [Example 121, (S)-3′-((6-((1-(3-fluoro-4-methylphenyl)ethyl)carbamoyl)-3,4-dihydroquinoline-1(2H)-yl)methyl)-[1,1′-biphenyl]-2-carboxylic acid], the “Binding assay (1 μLM)” value was “+++”.
`O=C(NCc1ccc([N+](=O)[O-])cc1)c1ccc2c(c1)CCCN2Cc1ccc(-c2ccccc2C(=O)O)cc1` [Example 8, 4′-((6-((4-nitrobenzyl)carbamoyl)-3,4-dihydroquinoline-1(2H)-yl)methyl)-[1,1′-biphenyl]-2-carboxylic acid]: the “Binding assay (1 μLM)” value is given as “+++”.
The entry for `C[C@H](NC(=O)c1ccc2c(c1)CCCN2Cc1cccc(-c2ccccc2C(N)=O)c1)c1ccccc1` [Example 117, (S)-1-((2′-carbamoyl-[1,1′-biphenyl]-3-yl)methyl)-N-(1-phenylethyl)-1,2,3,4-tetrahydroquinoline-6-carboxamide] is “+++”; for `C[C@H](NC(=O)c1ccc2c(c1)OCCN2Cc1ccccc1-c1ccc(C(N)=O)cc1)c1ccc2ccccc2c1` [Example 151, (S)-4-((4′-carbamoyl-[1,1′-biphenyl]-2-yl)methyl)-N-(1-(naphthalene-2-yl)ethyl)-3,4-dihydro-2H-benzo[b][1,4]oxazine-7-carboxamide] it is “+++”.
In the case of `C[C@H](NC(=O)c1ccc2c(c1)CCCN2Cc1ccc(-c2ccccc2C(=O)O)cc1)c1ccc(F)cc1` [Example 6, (S)-4′-((6-((1-(4-fluorophenyl)ethyl)carbamoyl)-3,4-dihydroquinoline-1(2H)-yl)methyl)-[1,1′-biphenyl]-2-caboxylic acid], the “Binding assay (1 μLM)” value is recorded as “+++”.
The entry for `C[C@H](NC(=O)c1ccc2c(c1)OCCN2Cc1ccc(-c2ccccc2C(=O)O)c(F)c1)c1ccc2ccccc2c1` [Example 163, (S)-2′-fluoro-4′-((7-((1-(naphthalene-2-yl)ethyl)carbamoyl)-2H-benzo[b][1,4]oxazine-4(3H)-yl)methyl)-[1,1′-biphenyl]-2-carboxylic acid] is “+++”; for `Cc1ccc([C@H](C)NC(=O)c2ccc3c(c2)CCCN3Cc2ccc(-c3ccccc3C(N)=O)cc2)cc1F` [Example 49, (S)-1-((2′-carbamoyl-[1,1′-biphenyl]-4-yl)methyl)-N-(1-(3-fluoro-4-methylphenyl)ethyl)-1,2,3,4-tetrahydroquinoline-6-carboxamide] it is “+++”.
Turning to `C[C@H](NC(=O)c1ccc2c(c1)CCCN2Cc1ccc(-c2ccccc2C(N)=O)cc1)c1cccc(Cl)c1` [Example 35, (S)-1-((2′-carbamoyl-[1,1′-biphenyl]-4-yl)methyl)-N-(1-(3-chlorophenyl)ethyl)-1,2,3,4-tetrahydroquinoline-6-carboxamide], the “Binding assay (1 μLM)” value was “+++”.
Under `C[C@H](NC(=O)c1ccc2c(c1)CCCN2Cc1ccc(-c2ccccc2C(=O)O)cc1)c1ccccc1C(F)(F)F` [Example 25, (S)-4′-((6-((1-(2-(trifluoromethyl)phenyl)ethyl)carbamoyl)-3,4-dihydroquinoline-1(2)-yl)methyl)-[1,1′-biphenyl]-2-carboxylic acid] stands “+++”; under `NC(=O)c1ccccc1-c1ccc(CN2CCCc3cc(C(=O)NCc4ccccc4Br)ccc32)cc1` [Example 51, N-(2-bromobenzyl)-1-((2′-carbamoyl-[1,1′-biphenyl]-4-yl)methyl)-1,2,3,4-tetrahydroquinoline-6-carboxamide], “+++”.
For `Cc1ccc([C@H](C)NC(=O)c2ccc3c(c2)CCCN3Cc2ccc(-c3ccccc3C(N)=O)cc2F)cc1F` [Example 114, (S)-1-((2′-carbamoyl-3-fluoro-[1,1′-biphenyl]-4-yl)methyl)-N-(1-(3-fluoro-4-methylphenyl)ethyl)-1,2,3,4-tetrahydroquinoline-6-carboxamide], the “Binding assay (1 μLM)” value is recorded as “+++”.
In the case of `C[C@H](NC(=O)c1ccc2c(c1)CCCN2Cc1ccc(-c2ccccc2C(=O)O)cc1)c1ccc(SC(F)(F)F)cc1` [Example 13, (S)-4′-((6-((1-(4-((trifluoromethyl)thio)phenyl)ethyl)carbamoyl)-3,4-dihydroquinoline-1 (2H)-yl)methyl)-[1,1′-biphenyl]-2-carboxylic acid], the “Binding assay (1 μLM)” value is “++++”.
Under `Cc1ccc([C@H](C)NC(=O)c2ccc3c(c2)CCCN3Cc2cc(-c3ccccc3C(N)=O)ccc2F)cc1F` [Example 141, (S)-1-((2′-carbamoyl-4-fluoro-[1,1′-biphenyl]-3-yl)methyl)-N-(1-(3-fluoro-4-methylphenyl)ethyl)-1,2,3,4-tetrahydroquinoline-6-carboxamide] stands “+++”.
Consider `C[C@H](NC(=O)c1ccc2c(c1)CCCN2Cc1ccc(-c2ccccc2C(=O)O)cc1)c1ccc(F)c(F)c1` [Example 21, (S)-4′-((6-((1-(3,4-fluorophenyl)ethyl)carbamoyl)-3,4-dihydroquinoline-1 (2H)-yl)methyl)-[1,1′-biphenyl]-2-carboxylic acid], for which the “Binding assay (1 μLM)” value is “+++”.
As to `C[C@H](NC(=O)c1ccc2c(c1)OCCN2Cc1ccc(-c2ccccc2C(=O)O)cc1)c1cccc(C(F)(F)F)c1` [Example 86, (S)-4′-((7-((1-(3-(trifluoromethyl)phenyl)ethyl)carbamoyl)-2H-benzo[b][1,4]oxazine-4(3H)-yl)methyl)-[1,1′-biphenyl]-2-carboxylic acid], the “Binding assay (1 μLM)” value is “+++”.
The entry for `C[C@H](NC(=O)c1ccc2c(c1)CCCN2Cc1cccc(-c2ccccc2C(=O)O)c1F)c1ccc([N+](=O)[O-])cc1` [Example 128, (S)-2′-fluoro-3′-((6-((1-(4-nitrophenyl)ethyl)carbamoyl)-3,4-dihydroquinoline-1(2H)-yl)methyl)-[1,1′-biphenyl]-2-caboxylic acid] is “++”.
